Experimental data reported in patent US10273224B2, “Substituted pyrimidine compounds, compositions and medicinal applications thereof” (JUBILANT BIOSYS LIMITED, priority 2013, dated 2019).

Biological target: T1, EGFR (L858R & T790M) (Homo sapiens, UniProt P00533, L858R/T790M)
T1 construct: GST; purchased Proqinase
Assay: EGFR (L858R & T790M) inhibition assay, HTRF method
Conditions: biochemical HTRF; EGFR (T790M/L858R) 2.5 nM, ATP 5 μM, 60 min room temperature
How it was run: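 GST-EGFR T790M/L858R (2.5 nM) phosphorylating biotinylated gastrin precursor peptide (0.5 μM) with 5 μM ATP in HEPES pH 7.4/Mg/Mn buffer, 60 min room temperature; compounds from 10 μM top. HTRF read-out (Eu anti-pTyr, SA-APC), 665/620 nm; IC50 from % inhibition.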

T1 sequence (P00533 25-1210 T790M/L858R): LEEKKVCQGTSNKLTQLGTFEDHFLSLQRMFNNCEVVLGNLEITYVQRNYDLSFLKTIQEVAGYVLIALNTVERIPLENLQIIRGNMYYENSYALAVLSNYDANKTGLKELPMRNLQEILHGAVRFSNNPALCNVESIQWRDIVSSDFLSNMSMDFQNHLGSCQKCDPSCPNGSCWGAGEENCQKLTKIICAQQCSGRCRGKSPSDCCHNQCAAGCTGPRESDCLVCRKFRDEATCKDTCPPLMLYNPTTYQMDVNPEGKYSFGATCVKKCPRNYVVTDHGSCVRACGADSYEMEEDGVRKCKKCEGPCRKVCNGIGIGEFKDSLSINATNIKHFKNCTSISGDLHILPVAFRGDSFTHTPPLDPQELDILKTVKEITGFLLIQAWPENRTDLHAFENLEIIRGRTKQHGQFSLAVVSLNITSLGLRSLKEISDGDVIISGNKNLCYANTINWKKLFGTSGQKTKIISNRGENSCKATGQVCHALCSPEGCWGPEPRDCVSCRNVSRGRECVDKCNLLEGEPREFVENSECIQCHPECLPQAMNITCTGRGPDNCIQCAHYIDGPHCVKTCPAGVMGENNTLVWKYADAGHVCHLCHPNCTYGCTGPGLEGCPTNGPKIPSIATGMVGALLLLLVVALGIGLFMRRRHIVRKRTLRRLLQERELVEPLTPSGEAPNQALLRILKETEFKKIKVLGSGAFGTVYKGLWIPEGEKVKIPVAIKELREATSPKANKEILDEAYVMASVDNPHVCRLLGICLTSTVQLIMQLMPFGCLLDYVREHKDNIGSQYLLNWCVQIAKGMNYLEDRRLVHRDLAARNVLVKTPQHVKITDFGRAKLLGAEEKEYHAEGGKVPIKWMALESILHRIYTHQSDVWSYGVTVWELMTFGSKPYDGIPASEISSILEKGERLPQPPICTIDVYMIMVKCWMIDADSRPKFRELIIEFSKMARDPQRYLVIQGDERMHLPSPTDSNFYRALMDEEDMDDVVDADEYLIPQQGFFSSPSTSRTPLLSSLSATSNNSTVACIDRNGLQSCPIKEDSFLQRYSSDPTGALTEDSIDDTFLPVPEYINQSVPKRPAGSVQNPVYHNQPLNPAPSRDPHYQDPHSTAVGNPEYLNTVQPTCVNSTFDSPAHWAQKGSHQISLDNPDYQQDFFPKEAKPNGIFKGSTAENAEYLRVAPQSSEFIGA

Row | Compound | IC50 [nM]
1 | C=CC(=O)Nc1cccc(Nc2nc(Nc3cc(C)ns3)ncc2Cl)c1 [Compound I-122, N-(3-((5-chloro-2-((3-methylisothiazol-5-yl)amino)pyrimidin-4-yl)amino)phenyl)acrylamide] | < 10
2 | C=CC(=O)N1CCCC(Oc2nc(Nc3cnn(C)c3)ncc2Cl)C1 (single isomer, unassigned) [II-12 (Enantiomer 1), 1-(3-((5-chloro-2-((1-methyl-1H-pyrazol-4-yl)amino)pyrimidin-4-yl)oxy)piperidin-1-yl)prop-2-en-1-one] | > 100
3 | CN(C)C/C=C/C(=O)NCC1CCCC(Nc2nc(Nc3cnn(C)c3)ncc2Cl)C1 (centres unmarked) [Compound I-109, (E)-N-((3-((5-chloro-2-((1-methyl-1H-pyrazol-4-yl)amino)pyrimidin-4-yl)amino)cyclohexyl)methyl)-4-(dimethylamino)but-2-enamide] | > 100
4 | C=CC(=O)Nc1cc(Nc2nc(Nc3cnn(C4CCN(C)CC4)c3)ncc2Cl)ccc1F [Compound I-67, N-(5-((5-chloro-2-((1-(1-methylpiperidin-4-yl)-1H-pyrazol-4-yl)amino)pyrimidin-4-yl)amino)-2-fluorophenyl)acrylamide] | 10 to 100
5 | C=CC(=O)N(C)c1ccc(F)c(Nc2nc(Nc3cnn(C)c3)ncc2Cl)c1 [Compound I-110, N-(3-((5-chloro-2-((1-methyl-1H-pyrazol-4-yl)amino)pyrimidin-4-yl)amino)-4-fluorophenyl)-N-methylacrylamide] | > 100
6 | CN(C)C/C=C/C(=O)NC1CCCC(Oc2nc(Nc3cnn(C)c3)ncc2Cl)C1 (single isomer, unassigned) [I-90 (Isomer 1), (E)-N-(3-((5-chloro-2-((1-methyl-1H-pyrazol-4-yl)amino)pyrimidin-4-yl)oxy)cyclohexyl)-4-(dimethylamino)but-2-enamide] | > 100
7 | CN1CCC(n2cc(Nc3ncc(Cl)c(Nc4ccc(F)c(NC(=O)C=C5CCCCC5)c4)n3)cn2)CC1 [Compound I-27, N-(5-((5-chloro-2-((1-(1-methylpiperidin-4-yl)-1H-pyrazol-4-yl)amino)pyrimidin-4-yl)amino)-2-fluorophenyl)-2-cyclohexylideneacetamide] | > 100
8 | C=CC(=O)Nc1cc(Nc2nc(Nc3cnn(C)c3)ncc2Cl)c(F)cc1F [Compound I-68, N-(5-((5-chloro-2-((1-methyl-1H-pyrazol-4-yl)amino)pyrimidin-4-yl)amino)-2,4-difluorophenyl)acrylamide] | 10 to 100
9 | C=CC(=O)N1CCCC(Oc2nc(Nc3cnn(C)c3)ncc2Cl)C1 (single isomer, unassigned) [II-13 (Enantiomer 2), 1-(3-((5-chloro-2-((1-methyl-1H-pyrazol-4-yl)amino)pyrimidin-4-yl)oxy)piperidin-1-yl)prop-2-en-1-one] | > 100
10 | C=CC(=O)Nc1cccc(Nc2nc(Nc3cnn(C)c3)ncc2C)c1 [Compound I-15, N-(3-((5-methyl-2-((1-methyl-1H-pyrazol-4-yl)amino)pyrimidin-4-yl)amino)phenyl)acrylamide] | 10 to 100
11 | C=CC(=O)NC1CCCC(Nc2nc(Nc3cnn(CCN(C)C)c3)ncc2Cl)C1 (centres unmarked) [Compound I-99, N-(3-((5-chloro-2-((1-(2-(dimethylamino)ethyl)-1H-pyrazol-4-yl)amino)pyrimidin-4-yl)amino)cyclohexyl)acrylamide] | > 100
12 | C=CC(=O)NC1CCC(Nc2nc(Nc3cnn(C)c3)ncc2Cl)C1 (centres unmarked) [Compound I-93, N-(3-((5-chloro-2-((1-methyl-1H-pyrazol-4-yl)amino)pyrimidin-4-yl)amino)cyclopentyl)acrylamide] | > 100
13 | C=CC(=O)N[C@@H]1CCC[C@H](Nc2nc(Nc3cnn(C)c3)ncc2Cl)C1 (single isomer, unassigned) [I-105 (Enantiomer 4)] | > 100
14 | C=CC(=O)Nc1cccc(Nc2nc(Nc3c(C)nn(C)c3C)ncc2Cl)c1 [Compound I-11, N-(3-((5-chloro-2-((1,3,5-trimethyl-1H-pyrazol-4-yl)amino)pyrimidin-4-yl)amino)phenyl)acrylamide] | > 100
15 | C=CC(=O)NC1CCCC(Oc2nc(Nc3cnn(C)c3)ncc2Cl)C1 (single isomer, unassigned) [I-89 (Isomer 2), N-(3-((5-chloro-2-((1-methyl-1H-pyrazol-4-yl)amino)pyrimidin-4-yl)oxy)cyclohexyl)acrylamide] | > 100
16 | C=CC(=O)Nc1ccc(F)c(Nc2nc(Nc3onc(C)c3C)ncc2Cl)c1 [Compound I-119, N-(3-((5-chloro-2-((3,4-dimethylisoxazol-5-yl)amino)pyrimidin-4-yl)amino)-4-fluorophenyl)acrylamide] | > 100
17 | C=CC(=O)Nc1cccc(Nc2nc(Nc3cnn(C4CC5CCC(C4)N5C)c3)ncc2Cl)c1 (centres unmarked) [Compound I-48, N-(3-((5-chloro-2-((1-(8-methyl-8-azabicyclo[3.2.1]octan-3-yl)-1H-pyrazol-4-yl)amino)pyrimidin-4-yl)amino)phenyl)acrylamide] | 10 to 100
18 | C=CC(=O)Nc1ccc(F)c(Nc2nc(Nc3cnn(C)c3C)ncc2Cl)c1 [Compound I-71, N-(3-((5-chloro-2-((1,5-dimethyl-1H-pyrazol-4-yl)amino)pyrimidin-4-yl)amino)-4-fluorophenyl)acrylamide] | 10 to 100

Row | Compound | IC50 [nM]
19 | C=CC(=O)Nc1cccc(Nc2nc(Nc3cnn(C4CCN(C)CC4)c3)ncc2F)c1 [Compound I-18, N-(3-((5-fluoro-2-((1-(1-methylpiperidin-4-yl)-1H-pyrazol-4-yl)amino)pyrimidin-4-yl)amino)phenyl)acrylamide] | 10 to 100
20 | C=CC(=O)N1CCC(Nc2nc(Nc3cnn(C)c3)ncc2Cl)CC1 [II-8, 1-(4-((5-chloro-2-((1-methyl-1H-pyrazol-4-yl)amino)pyrimidin-4-yl)amino)piperidin-1-yl)prop-2-en-1-one] | > 100
21 | C=CC(=O)Nc1cccc(Nc2nc(Nc3cnn(CCOC)c3C)ncc2Cl)c1 [Compound I-3, N-(3-((5-chloro-2-((1-(2-methoxyethyl)-5-methyl-1H-pyrazol-4-yl)amino)pyrimidin-4-yl)amino)phenyl)acrylamide] | 10 to 100
22 | Cc1cc(Nc2ncc(Cl)c(NC3CCCC(NC(=O)/C=C/CN(C)C)C3)n2)sn1 (centres unmarked) [Compound I-115, (E)-N-(3-((5-chloro-2-((3-methylisothiazol-5-yl)amino)pyrimidin-4-yl)amino)cyclohexyl)-4-(dimethylamino)but-2-enamide] | > 100
23 | COCCn1cc(Nc2ncc(Cl)c(Nc3cccc(NC(=O)C=C4CCCCC4)c3)n2)cn1 [Compound I-6, N-(3-((5-chloro-2-((1-(2-methoxyethyl)-1H-pyrazol-4-yl)amino)pyrimidin-4-yl)amino)phenyl)-2-cyclohexylideneacetamide] | > 100
24 | C=CC(=O)Nc1cccc(Nc2nc(Nc3cn(CCOC)nc3C)ncc2Cl)c1 [Compound I-2, N-(3-((5-chloro-2-((1-(2-methoxyethyl)-3-methyl-1H-pyrazol-4-yl)amino)pyrimidin-4-yl)amino)phenyl)acrylamide] | > 100
25 | C=CC(=O)Nc1ccc(F)c(Nc2nc(Nc3cnn(C)c3)ncc2Cl)c1 [Compound I-39, N-(3-((5-chloro-2-((1-methyl-1H-pyrazol-4-yl)amino)pyrimidin-4-yl)amino)-4-fluorophenyl)acrylamide] | < 10
26 | C=CC(=O)Nc1ccc(F)c(Nc2nc(Nc3cn(C)nc3Cl)ncc2Cl)c1 [Compound I-58, N-(3-((5-chloro-2-((3-chloro-1-methyl-1H-pyrazol-4-yl)amino)pyrimidin-4-yl)amino)-4-fluorophenyl)acrylamide] | < 10
27 | C=CC(=O)Nc1cc(Nc2nc(Nc3cnn(C4CCN(C)CC4)c3)ncc2Cl)c(F)cc1F [Compound I-69, N-(5-((5-chloro-2-((1-(1-methylpiperidin-4-yl)-1H-pyrazol-4-yl)amino)pyrimidin-4-yl)amino)-2,4-difluorophenyl)acrylamide] | < 10
28 | C=CC(=O)N[C@H]1CCCC[C@@H](Nc2nc(Nc3cnn(C)c3)ncc2Cl)C1 (single isomer, unassigned) [I-112 (Isomer 1)] | > 100
29 | C=CC(=O)Nc1cc(Nc2nc(Nc3cnn(C)c3)ncc2Cl)ccc1F [Compound I-66, N-(5-((5-chloro-2-((1-methyl-1H-pyrazol-4-yl)amino)pyrimidin-4-yl)amino)-2-fluorophenyl)acrylamide] | 10 to 100
30 | C=CC(=O)Nc1cccc(Nc2nc(Nc3cn(C)cn3)ncc2Cl)c1 [Compound I-60, N-(3-((5-chloro-2-((1-methyl-1H-imidazol-4-yl)amino)pyrimidin-4-yl)amino)phenyl)acrylamide] | 10 to 100
31 | C=CC(=O)Nc1cccc(Nc2nc(Nc3cnn(CCO)c3)ncc2Cl)c1 [Compound I-21, N-(3-((5-chloro-2-((1-(2-hydroxyethyl)-1H-pyrazol-4-yl)amino)pyrimidin-4-yl)amino)phenyl)acrylamide] | < 10
32 | C=CC(=O)Nc1ccc(OC2CCOC2)c(Nc2nc(Nc3cnn(C)c3)ncc2Cl)c1 (centres unmarked) [Compound I-54, N-(3-((5-chloro-2-((1-methyl-1H-pyrazol-4-yl)amino)pyrimidin-4-yl)amino)-4-((tetrahydrofuran-3-yl)oxy)phenyl)acrylamide] | > 100
33 | C=C(C)C(=O)Nc1cccc(Nc2nc(Nc3cnn(C4CCN(C)CC4)c3)ncc2Cl)c1 [Compound I-9, N-(3-((5-chloro-2-((1-(1-methylpiperidin-4-yl)-1H-pyrazol-4-yl)amino)pyrimidin-4-yl)amino)phenyl)methacrylamide] | > 100
34 | C=CC(=O)Nc1cccc(Nc2nc(Nc3cnn(C)c3)ncc2C2CC2)c1 [Compound I-76, N-(3-((5-cyclopropyl-2-((1-methyl-1H-pyrazol-4-yl)amino)pyrimidin-4-yl)amino)phenyl)acrylamide] | 10 to 100
35 | C=CC(=O)N1CCCC(CNc2nc(Nc3cnn(C)c3)ncc2Cl)C1 (centres unmarked) [II-9, 1-(3-(((5-chloro-2-((1-methyl-1H-pyrazol-4-yl)amino)pyrimidin-4-yl)amino)methyl)piperidin-1-yl)prop-2-en-1-one] | > 100
